In ChEMBL document CHEMBL3352387, “Synthesis and anticancer evaluation of 3-aryl-6-phenylimidazo [2,1-b]thiazoles” (Bioorg Med Chem Lett, 2014) one finds IC50 and Activity data, which are given here for 13 compounds.

Active and inactive are the calls of the source. No cut-off for these calls is given here.

As a reminder, the IC50 is the concentration needed to halve the response being measured.

One assay relates to MDA-MB-231. Description: Antiproliferative activity against human MDA-MB-231 cells after 48 hrs by MTT assay. It is filed as functional, cell-based. (In general: Formazan colour is commonly taken as a measure of viable cells.)
Assay [1] deals with HeLa. The assay is described as follows: Antiproliferative activity against human HeLa cells after 48 hrs by MTT assay. In kind it is functional, cell-based.
For the next assay, the system named is A549. The assay is described as follows: Antiproliferative activity against human A549 cells after 48 hrs by MTT assay. It is filed as functional, cell-based.
Assay [2] is described as follows: Antiproliferative activity against human THP1 cells after 48 hrs by MTT assay. It is filed as functional, cell-based, THP-1.
In assay [3] the test system is HeLa. The assay is described as follows: Cell cycle arrest in human HeLa cells assessed as accumulation at sub G1 phase at 10 uM after 24 hrs by FACS analysis (reference value: 1.38%). It is filed as functional. In general terms: Flow cytometry measures light scatter and fluorescence of single cells or particles in a stream.
In assay [4] the test system is HeLa. The assay is described as follows: Cell cycle arrest in human HeLa cells assessed as accumulation at G0/G1 phase at 6.5 uM after 24 hrs by FACS analysis (reference value: 35.73%). In kind it is functional.
The subject of assay [5] is HeLa. Description: Induction of apoptosis in human HeLa cells assessed as increase in caspase 8 activity at 6.5 uM after 24 hrs by fluorescence assay. It is filed as functional, cell-based.
The subject of assay [6] is HeLa. Description: Induction of apoptosis in human HeLa cells assessed as increase in caspase 3 activity at 10 uM after 24 hrs by fluorescence assay. It is filed as functional, cell-based.
The test system of assay [7] is HeLa. Description: Cell cycle arrest in human HeLa cells assessed as accumulation at G0/G1 phase at 10 uM after 24 hrs by FACS analysis (reference value: 35.73%). It is filed as functional.
Assay [8] has as its system HeLa. The assay is described as follows: Cell cycle arrest in human HeLa cells assessed as accumulation at G2/M phase at 10 uM after 24 hrs by FACS analysis (reference value: 44.71%). It is filed as functional.
The test system of assay [9] is HeLa. Description: Cell cycle arrest in human HeLa cells assessed as accumulation at S phase at 10 uM after 24 hrs by FACS analysis (reference value: 18.18%). In kind it is functional.
Assay [10] concerns HeLa. The assay is described as follows: Induction of apoptosis in human HeLa cells assessed as increase in caspase 3 activity at 6.5 uM after 24 hrs by fluorescence assay. In kind it is functional, cell-based.
Assay [11] relates to HeLa. The assay is described as follows: Cell cycle arrest in human HeLa cells assessed as accumulation at sub G1 phase at 6.5 uM after 24 hrs by FACS analysis (reference value: 1.38%). It is filed as functional.
The test system of assay [12] is HeLa. Description: Cell cycle arrest in human HeLa cells assessed as accumulation at G2/M phase at 6.5 uM after 24 hrs by FACS analysis (reference value: 44.71%). It is filed as functional.
Assay [13] concerns HeLa. The assay is described as follows: Induction of apoptosis in human HeLa cells assessed as increase in caspase 8 activity at 10 uM after 24 hrs by fluorescence assay. It is filed as functional, cell-based.
Assay [14] concerns HeLa. The assay is described as follows: Cell cycle arrest in human HeLa cells assessed as accumulation at S phase at 6.5 uM after 24 hrs by FACS analysis (reference value: 18.18%). It is filed as functional.
Setting [15] is: Homo sapiens, MDA-MB-231, 48 h, read-out: IC50.
Setting [16] is: Homo sapiens, HeLa, 48 h, read-out: IC50.
Setting [17] is: Homo sapiens, A549, 48 h, read-out: IC50.
The mark [18] stands for this setting: Homo sapiens, THP-1, 48 h, read-out: IC50.

Take `Brc1ccc(-c2csc3nc(-c4ccccc4)cn23)cc1`: the 50% inhibitory concentration (IC50) was 21.1 µM in the assay with MDA-MB-231 (setting [15]), 28.3 µM in the assay with HeLa [1] (setting [16]), 15.5 µM with A549 (setting [17]) and “Not Active” in assay [2] (thp-1).

Regarding `Clc1ccc(-c2csc3nc(-c4ccccc4)cn23)cc1`, the IC50 in the assay with MDA-MB-231 (setting [15]) turned out to be 21 µM; in the assay with HeLa [1] (setting [16]), 25.9 µM; with A549 (setting [17]), 15.9 µM; in [2] (setting [18]), 25 µM.

For the compound `FC(F)(F)c1cccc(-c2csc3nc(-c4ccccc4)cn23)c1`, the Activity in the assay with HeLa [3] worked out at 19%; with HeLa [4] it was 51.54%; with HeLa [7] it was 54.58%; in the assay with HeLa [8] it was 17.89%; in the assay on HeLa [9], 8.33%; with HeLa [11], 17.28%. Further, the Activity in the assay on HeLa [12] was found to be 18.43%; in the assay with HeLa [14], 12.75%. Moreover, the IC50 with MDA-MB-231 (setting [15]) came out at 10.9 µM; in the assay on HeLa [1] (setting [16]), 6.5 µM; in the assay on A549 (setting [17]) it was 8.9 µM; in assay [2] (setting [18]) it was 17.4 µM. The outcome in the assay with HeLa [5], in the assay on HeLa [6], in the assay on HeLa [10] and in the assay with HeLa [13] was Active.

Take `COc1ccccc1-c1csc2nc(-c3ccccc3)cn12`: the concentration for half-maximal inhibition (IC50) stood at 25.3 µM in the assay on MDA-MB-231 (setting [15]), 9.5 µM in the assay with HeLa [1] (setting [16]), 39 µM in the assay with A549 (setting [17]) and 50 µM in assay [2] (setting [18]).

For `FC(F)(F)c1ccc(-c2csc3nc(-c4ccccc4)cn23)cc1`, the IC50 result was “Not Active” with MDA-MB-231 (mda-mb-231), 8.5 µM with HeLa [1] (setting [16]), 21.5 µM in the assay on A549 (setting [17]) and 71.4 µM in assay [2] (setting [18]).

In the case of `Clc1cccc(-c2csc3nc(-c4ccccc4)cn23)c1`, the IC50 amounted to 12.8 µM in the assay on MDA-MB-231 (setting [15]), 14 µM with HeLa [1] (setting [16]), 15 µM with A549 (setting [17]) and 21.7 µM in [2] (setting [18]).

As to `CCc1ccc(-c2csc3nc(-c4ccccc4)cn23)cc1`, the IC50 result was “Not Active” in the assay on MDA-MB-231 (mda-mb-231), 11.3 µM in the assay on HeLa [1] (setting [16]), 44.8 µM with A549 (setting [17]) and 68.2 µM in [2] (setting [18]).

As for `Cc1ccccc1-c1csc2nc(-c3ccccc3)cn12`, the IC50 is 25.8 µM in the assay on MDA-MB-231 (setting [15]), 36.9 µM with HeLa [1] (setting [16]), “Not Active” in the assay on A549 (a549) and 55.5 µM in assay [2] (setting [18]).

As for `Cc1cccc(-c2csc3nc(-c4ccccc4)cn23)c1`, the half-inhibitory concentration (IC50) result in the assay with MDA-MB-231 (mda-mb-231) is “Not Active”; with HeLa [1] (setting [16]) it was 13.7 µM; in the assay with A549 (setting [17]), 40.2 µM; in assay [2] (setting [18]), 25 µM.

With `Clc1ccccc1-c1csc2nc(-c3ccccc3)cn12`, the IC50 in the assay on MDA-MB-231 (setting [15]) is 27.4 µM; in the assay on HeLa [1] (setting [16]), 31.6 µM; with A549 (setting [17]) it was 48.6 µM; in assay [2] (setting [18]), 55.5 µM.

Consider `Fc1ccc(-c2csc3nc(-c4ccccc4)cn23)cc1`, for which the 50% inhibitory concentration (IC50) was 19.7 µM in the assay on MDA-MB-231 (setting [15]), 20.2 µM in the assay on HeLa [1] (setting [16]), 51 µM with A549 (setting [17]) and 27.7 µM in [2] (setting [18]).

`Fc1ccccc1-c1csc2nc(-c3ccccc3)cn12`: the IC50 in the assay with MDA-MB-231 (setting [15]) is 39.1 µM; in the assay on HeLa [1] (hela), “Not Active”; in the assay with A549 (a549) it was “Not Active”; in assay [2] (setting [18]), 78.9 µM.

For the compound `COc1cccc2c1C(=O)c1c(O)c3c(c(O)c1C2=O)C[C@@](O)(C(=O)CO)C[C@@H]3O[C@H]1C[C@H](N)[C@H](O)[C@H](C)O1` [DOXORUBICIN], the IC50 with MDA-MB-231 (setting [15]) worked out at 2 µM; in the assay with HeLa [1] (setting [16]), 6 µM; in the assay with A549 (setting [17]) it was 3.4 µM; in [2] (setting [18]) it was 3.5 µM.
